Usually pIC50 stands for −log10 of the IC50, conventionally taken in molar units. High values mean a low IC50, low ones a high IC50.

pIC50: −log10 of the molar value.

In the assay the target is T1, human type 1 glycine transporter (GlyT1) (Homo sapiens, UniProt P48067).
T1 construct: T98G cells (glioma cells) expressing human type 1 glycine transporter (GlyT1) were used
T1 sequence (P48067 1-706): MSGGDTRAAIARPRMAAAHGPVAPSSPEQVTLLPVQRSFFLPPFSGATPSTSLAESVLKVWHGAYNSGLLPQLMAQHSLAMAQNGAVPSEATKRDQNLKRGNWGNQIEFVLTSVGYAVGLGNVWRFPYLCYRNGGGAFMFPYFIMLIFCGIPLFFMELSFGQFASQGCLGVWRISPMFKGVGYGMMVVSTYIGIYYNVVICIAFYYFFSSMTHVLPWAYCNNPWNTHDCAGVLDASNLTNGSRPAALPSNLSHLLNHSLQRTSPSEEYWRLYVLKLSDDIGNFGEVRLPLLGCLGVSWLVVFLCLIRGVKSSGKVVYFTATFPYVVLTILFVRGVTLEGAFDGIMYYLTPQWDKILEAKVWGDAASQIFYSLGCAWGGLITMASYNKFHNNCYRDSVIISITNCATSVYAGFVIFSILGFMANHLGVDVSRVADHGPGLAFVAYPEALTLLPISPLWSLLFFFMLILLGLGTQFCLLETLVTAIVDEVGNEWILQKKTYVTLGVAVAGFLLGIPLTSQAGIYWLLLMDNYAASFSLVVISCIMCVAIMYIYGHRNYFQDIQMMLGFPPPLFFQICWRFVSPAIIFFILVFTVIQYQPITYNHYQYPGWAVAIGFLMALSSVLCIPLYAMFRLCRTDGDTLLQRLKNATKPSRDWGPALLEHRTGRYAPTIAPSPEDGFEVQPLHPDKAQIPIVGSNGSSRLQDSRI
The experiment in a line: Glycine uptake inhibition experiment ([3H]glycine uptake). Type of assay: cell-based. A digest of the protocol: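 T98G glioma cells expressing human GlyT1 were pretreated 10 min with compound in HEPES buffer pH 7.4 (0.2% BSA), then incubated with compound plus 250 nM final [3H]glycine for 15 min at room temperature. Intracellular radioactivity was counted after NaOH lysis; 10 μM ALX5407 defined non-specific uptake. IC50 came from 10^−9–10^−5 M curves.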

Regarding `CCn1cc(-c2cccc(C(NC(=O)c3nccnc3Cl)C3(O)CCC(F)(F)CC3)c2)cn1` (stereo not drawn) [Compound 141, 3-chloro-N-{(4,4-difluoro-1-hydroxycyclohexyl)[3-(1-ethyl-1H-pyrazol-4-yl)phenyl]methyl}pyradine-2-carboxamide], the pIC50 (GlyT1) was 5.51.

Consider `O=C(NC(c1cccc(-c2cnccn2)c1)C1(O)CCC(F)(F)CC1)c1nccc(C(F)(F)F)c1Cl` (stereo not drawn) [Compound 159, 3-chloro-N-{(4,4-difluoro-1-hydroxycyclohexyl)[3-(pyrazin-2-yl)phenyl]methyl}-4-(trifluoromethyl)pyridine-2-carboxamide], for which the pIC50 (GlyT1) is 6.49. Compared with the last compound, the pIC50 is 0.98 log units higher.

Turning to `O=C(NC(c1cccc(Cl)c1)C1(O)CCCCC1)c1nccc(C(F)(F)F)c1Cl` (single isomer, unassigned) [Compound 230, 3-chloro-N-[(3-chlorophenyl)(1-hydroxycyclohexyl)methyl]-4-(trifluoromethyl)pyridine-2-carboxamide], the pIC50 (GlyT1) is 5.55.

Under “GlyT1”, `O=C(NC(c1cc(Cl)ccn1)C1(O)CCC(F)(F)CC1)c1nccc2ccccc12` (single isomer, unassigned) [Compound 349, N-[(4-chloropyridin-2-yl)(4,4-difluoro-1-hydroxycyclohexyl)methyl]isoquinoline-1-carboxamide] showed a pIC50 of 5.96.

`CCOc1cccc(C(NC(=O)c2nccc(C(F)(F)F)c2Cl)C2(O)CCCC2)c1` (stereo not drawn) [Compound 87, 3-chloro-N-[(3-ethoxyphenyl)(1-hydroxycyclopentyl)methyl]-4-(trifluoromethyl)pyridine-2-carboxamide]: the pIC50 (GlyT1) is 6.52.

`CS(=O)(=O)c1ncc(C(F)(F)F)cc1C(=O)NC(c1cccc(F)c1Cl)[C@]1(O)CC[C@@H](F)CC1` (single isomer, unassigned) [Compound 387, N-[(2-chloro-3-fluorophenyl)(cis-4-fluoro-1-hydroxycyclohexyl)methyl]-2-(methylsulfonyl)-5-(trifluoromethyl)pyridine-3-carboxamide] had a pIC50 (GlyT1) of 7.44.

`O=C(NC(c1cccc(-c2ccccn2)c1)C1(O)CCC(F)(F)CC1)c1nccc(C(F)(F)F)c1Cl` (stereo not drawn) [Compound 143, 3-chloro-N-{(4,4-difluoro-1-hydroxycyclohexyl)[3-(pyridin-2-yl)phenyl]methyl}-4-(trifluoromethyl)pyridine-2-carboxamide]: the pIC50 (GlyT1) is 6.68. This pIC50 is 0.76 log units lower than that of the compound before.

`O=C(NC(c1cccc(F)c1Cl)[C@]1(O)CC[C@@H](F)CC1)c1ncccc1Cl` (single isomer, unassigned) [Compound 249, 3-chloro-N-[(2-chloro-3-fluorophenyl)(cis-4-fluoro-1-hydroxycyclohexyl)methyl]pyridine-2-carboxamide] had a pIC50 (GlyT1) of 5.92.

On to `O=C(NC(c1cccc(F)c1Cl)[C@]1(O)CC[C@@H](F)CC1)c1nccc2ncccc12` (single isomer, unassigned) [Compound 256, N-[(2-chloro-3-fluorophenyl)(cis-4-fluoro-1-hydroxycyclohexyl)methyl]-1,6-naphthyridin-5-carboxamide], for which the pIC50 (GlyT1) was 5.68. This pIC50 is 0.24 log units lower than that of the compound before.

On to `O=C(NC(c1ccc(F)c(F)c1F)C1(O)CCC(F)(F)CC1)c1nccc(C(F)(F)F)c1Cl` (stereo not drawn) [Compound 170, 3-chloro-N-[(4,4-difluoro-1-hydroxycyclohexyl)(2,3,4-trifluorophenyl)methyl]-4-(trifluoromethyl)pyridine-2-carboxamide], for which the pIC50 (GlyT1) was 6.20.

For the setting “GlyT1”, `O=C(NC(c1cc(Cl)ccc1F)[C@]1(O)CC[C@@H](F)CC1)c1nccc(C(F)(F)F)c1Cl` (single isomer, unassigned) [Compound 375, 3-chloro-N-[(5-chloro-2-fluroophenyl)(cis-4-fluoro-1-hydroxycyclohexyl)methyl]-4-(trifluoromethyl)pyridine-2-carboxamide] had a pIC50 of 6.60.

The compound `O=C(NC(c1cccc(F)c1Cl)[C@]1(O)CC[C@@H](F)CC1)c1cc(Cl)ccc1C(F)(F)F` (single isomer, unassigned) [Compound 314, 5-chloro-N-[(2-chloro-3-fluorophenyl)(cis-4-fluoro-1-hydroxycyclohexyl)methyl]-2-(trifluoromethyl)benzamide] had a pIC50 (GlyT1) of 6.38.

Compound `O=C(NC(c1cccc(Cl)n1)C1(O)CCC(F)(F)CC1)c1ccnc(C(F)(F)F)c1Cl` (single isomer, unassigned) [Compound 347, 3-chloro-N-[(6-chloropyridin-2-yl)(4,4-difluoro-1-hydroxycyclohexyl)methyl]-2-(trifluoromethyl)pyridine-4-carboxamide] gave a pIC50 (GlyT1) of 6.42. This pIC50 and that of the compound before are within 0.2 log units of each other.

`O=C(NC(c1ccc(Cl)nc1)[C@]1(O)CC[C@@H](F)CC1)c1nccc(C(F)(F)F)c1Cl` (single isomer, unassigned) [Compound 291, 3-chloro-N-[(6-chloropyridin-3-yl)(cis-4-fluoro-1-hydroxycyclohexyl)methyl]-4-(trifluoromethyl)pyridine-2-carboxamide] gave a pIC50 (GlyT1) of 6.05.

The compound `O=C(NC(c1cc(Cl)ccc1Cl)C1(O)CCC(F)(F)CC1)c1nccc(C(F)(F)F)c1Cl` (stereo not drawn) [Compound 148, 3-chloro-N-[(2,5-dichlorophenyl)(4,4-difluoro-1-hydroxycyclohexyl)methyl]-4-(trifluoromethyl)pyridine-2-carboxamide] gave a pIC50 (GlyT1) of 6.59.

In the case of `COc1cccc(C(=O)NC(c2cccc(F)c2Cl)[C@]2(O)CC[C@@H](F)CC2)c1Cl` (single isomer, unassigned) [Compound 289, 2-chloro-N-[(2-chloro-3-fluorophneyl)(cis-4-fluoro-1-hydroxycyclohexyl)methyl]-3-methoxybenzamide], where the note is “GlyT1”, the pIC50 was 5.80.

In turn, `O=C(NC(c1cncc(Cl)c1)[C@]1(O)CC[C@@H](F)CC1)c1nccc(C(F)(F)F)c1Cl` (single isomer, unassigned) [Compound 242, 3-chloro-N-[(5-chloropyridin-3-yl)(cis-4-fluoro-1-hydroxycyclohexyl)methyl]-4-(trifluoromethyl)pyridine-2-carboxamide] had a negative logarithm of the IC50 (pIC50) (GlyT1) of 6.62.

As for `O=C(NC(c1ccccc1)C1(O)CCCC1)c1cccc(C(F)(F)F)c1Cl` (stereo not drawn) [Compound 11, 2-chloro-N-[(1-hydroxycyclopentyl)(phenyl)methyl]-3-(trifluoromethyl)benzamide], the negative logarithm of the IC50 (pIC50) (GlyT1) is 6.00. This pIC50 is 0.62 log units lower than that of the compound before.

Where the note is “GlyT1”, `O=C(NC(c1cccnc1)[C@]1(O)CC[C@@H](F)CC1)c1nccc(C(F)(F)F)c1Cl` (single isomer, unassigned) [Compound 266, 3-chloro-N-[(cis-4-fluoro-1-hydroxycyclohexyl)(pyridin-3-yl)methyl]-4-(trifluoromethyl)pyridine-2-carboxamide] gave a pIC50 of 5.80. This pIC50 is 0.20 log units lower than that of the compound before.

As for `O=C(NC(c1cccc(C(F)(F)F)c1)C1(O)CCCC1)c1nccc(C(F)(F)F)c1Cl` (stereo not drawn) [Compound 81, 3-chloro-N-{(1-hydroxycyclopentyl)[3-(trifluoromethyl)phenyl]methyl}-4-(trifluoromethyl)pyridine-2-carboxamide], the pIC50 (GlyT1) is 6.02.

Turning to `O=C(NC(c1cccc(F)c1)C1(O)CCC(F)(F)CC1)c1ccnc(C(F)(F)F)c1Cl` (single isomer, unassigned) [Compound 400, 3-chloro-N-[(4,4-difluoro-1-hydroxycyclohexyl)(3-fluorophenyl)methyl]-2-(trifluoromethyl)pyridine-4-carboxamide], the pIC50 (human GlyT1) was 6.64.

Source of the values: patent publication US20160130278A1 (TAISHO PHARMACEUTICAL CO., LTD, priority 2013, published 2016).
